Patent US7763641B2, “Broadspectrum heterocyclic substituted phenyl containing sulfonamide HIV protease inhibitors” (Tibotec Pharmaceuticals Ltd., priority 2001, dated 2010)
Like-named read-outs stand apart in the source and are kept apart here.

How the values were obtained:
HIV-1 strain LAI = test: Cellular anti-HIV assay (MTT), wild type strain; assay type: cell-based; conditions: for pEC50: MT4 cells, five days, MTT, HIV-1 strain LAI, Tables 1-6; for WT (pEC50 against wild type HIV-LAI strain): Table 8
Procedure: The compounds of the present invention were examined for anti-viral activity in a cellular assay. […] The cellular assay was performed according to the following procedure.

HIV strain A = test: Cellular anti-HIV assay, clinically isolated mutant strain A; assay type: cell-based; conditions: FR=EC50 (mutant strain)/EC50 (HIV-1 strain LAI)
Procedure: (§1) HIV- or mock-infected MT4 cells were incubated for five days in the presence of various concentrations of the inhibitor. […] Cell viability is measured by measuring the concentration of MTT, a yellow, water soluble tetrazolium dye that is converted to a purple, water insoluble formazan in the mitochondria of living cells only. Upon solubilization of the resulting formazan crystals with isopropanol, the absorbance of the solution is monitored at 540 nm. The values correlate directly to the number of living cells remaining in the culture at the completion of the five day incubation. The inhibitory activity of the compound was monitored on the virus-infected cells and was expressed as EC50 and EC90. These values represent the amount of the compound required to protect 50% and 90%, respectively, of the cells from the cytopathogenic effect of the virus. […] The selectivity index (SI) (ratio CC50/EC50) is an indication of the selectivity of the anti-HIV activity of the inhibitor. Wherever results are reported as e.g. pEC50 or pCC50 values, the result is expressed as the negative logarithm of the result expressed as EC50 or CC50 respectively.
(§2) Because of the increasing emergence of drug resistant HIV strains, the present compounds were tested for their potency against clinically isolated HIV strains harboring several mutations (Table 7 and 8).
(§3) As a measure of the broad spectrum activity of the present compounds, the fold resistance (FR), defined as FR=EC50 (mutant strain)/EC50 (HIV-1 strain LAI), was determined.

HIV strain B = test: Cellular anti-HIV assay, clinically isolated mutant strain B; assay type: cell-based; conditions: FR=EC50 (mutant strain)/EC50 (HIV-1 strain LAI)
Procedure: as §1, §2, §3

mock-infected MT4 cells = test: Toxicity on mock-infected cells (MTT)
Procedure: as §1, §3

HIV strain E = test: Cellular anti-HIV assay, clinically isolated mutant strain E; assay type: cell-based; conditions: FR=EC50 (mutant strain)/EC50 (HIV-1 strain LAI)
Procedure: as §1, §2, §3

HIV strain C = test: Cellular anti-HIV assay, clinically isolated mutant strain C; assay type: cell-based; conditions: FR=EC50 (mutant strain)/EC50 (HIV-1 strain LAI)
Procedure: as §1, §2, §3

HIV strain F = test: Cellular anti-HIV assay, clinically isolated mutant strain F; assay type: cell-based; conditions: FR=EC50 (mutant strain)/EC50 (HIV-1 strain LAI)
Procedure: as §1, §2, §3

HIV strain D = test: Cellular anti-HIV assay, clinically isolated mutant strain D; assay type: cell-based; conditions: FR=EC50 (mutant strain)/EC50 (HIV-1 strain LAI)
Procedure: as §1, §2, §3

[1] = pCC50 with mock transfected cells

| Structure (SMILES) | pEC50 (HIV-1 strain LAI) | WT (pEC50 against wild type HIV-LAI strain) (HIV-1 strain LAI) | A (FR value towards mutant A) (HIV strain A) | B (FR towards mutant B) (HIV strain B) | Tox (pCC50) (mock-infected MT4 cells; [1]) | E (FR towards mutant E) (HIV strain E) | C (FR towards mutant C) (HIV strain C) | F (FR towards mutant F) (HIV strain F) | Tox (pCC50) (mock-infected MT4 cells) | D (FR towards mutant D) (HIV strain D) |
| --- | --- | --- | --- | --- | --- | --- | --- | --- | --- | --- |
| CC(C)CN(CC(O)C(Cc1ccccc1)NC(=O)OC1COC2OCCC12)S(=O)(=O)c1ccc(-c2csc(Nc3ccncc3)n2)cc1 (centres unmarked) [Compound 5] | 7.6 | 7.6 | 22.3 | 6.3 | 4.95 | 13.5 | 3.0 | – | – | – |
| Cc1cccc(C)c1OCC(=O)N[C@@H](Cc1ccccc1)[C@H](O)CN(CC(C)C)S(=O)(=O)c1ccc(-c2cc[nH]n2)cc1 [Compound 24, [(1S,2R)-2-hydroxy-3-[N-(2-methylpropyl)-N-(4-pyrazol-3(5)-ylphenylsulfonyl)-amino]-1-(phenylmethyl)propyl]-(2,6-dimethylphenoxy) acetamide] | 7.1 | 7.1 | 1.1 | – | 4.2 | 3.1 | – | – | – | – |
| CC(=O)Nc1nc(-c2ccc(S(=O)(=O)N(CC(C)C)CC(O)C(Cc3ccccc3)NC(=O)OC3COC4OCCC34)cc2)c[nH]1 (centres unmarked) [Compound 32] | 7.7 | 7.7 | 1.3 | 1.0 | <4.0 | 0.95 | 0.33 | 7.2 | – | – |
| CC(C)CN(CC(O)C(Cc1ccccc1)NC(=O)OC1COC2OCCC12)S(=O)(=O)c1ccc(-c2c[nH]c(NC(=O)OC3COC4OCCC34)n2)cc1 (centres unmarked) [Compound 33] | 6.7 | 6.7 | 0.71 | 0.66 | <4.0 | 0.19 | 0.2 | 2.6 | – | – |
| Cc1nc(-c2ccc(S(=O)(=O)N(CC(C)C)C[C@@H](O)[C@H](Cc3ccccc3)NC(=O)OCc3cncs3)cc2)co1 [Compound 36, [(1S,2R)-2-hydroxy-3-[N-[4-(2-methyloxazol-4-yl)phenylsulfonyl]-N-(2-methylpropyl)amino]-1-(phenylmethyl)propyl]carbamic acid, (thiazol-5-ylmethyl)ester] | 6.3 | – | – | – | – | – | – | – | – | – |
| CC(C)CN(CC(O)C(Cc1ccccc1)NC(=O)OC1COC2OCCC12)S(=O)(=O)c1ccc(-c2coc(N)n2)cc1 (centres unmarked) [Compound 37] | 8.4 | – | – | – | – | – | – | – | – | – |
| CC(C)CN(CC(O)C(Cc1ccccc1)NC(=O)OC1COC2OCCC12)S(=O)(=O)c1ccc(-c2coc(COCc3ccccc3)n2)cc1 (centres unmarked) [Compound 39] | 8.1 | 8.1 | 36 | – | – | 52 | – | – | <4.0 | – |
| CCCc1nc(-c2ccc(S(=O)(=O)N(CC(C)C)CC(O)C(Cc3ccccc3)NC(=O)OC3COC4OCCC34)cc2)co1 (centres unmarked) [Compound 40] | 8.5 | 8.5 | 5.0 | – | – | 41 | 4.1 | 219 | <4.49 | 12.9 |
| CC(C)CN(CC(O)C(Cc1ccccc1)NC(=O)OC1COC2OCCC12)S(=O)(=O)c1ccc(-c2coc(CCC(=O)O)n2)cc1 (centres unmarked) [Compound 41] | 7.2 | – | – | – | – | – | – | – | – | – |
| CC(C)CN(CC(O)C(Cc1ccccc1)NC(=O)OC1COC2OCCC12)S(=O)(=O)c1ccc(-c2coc(-c3ccc([N+](=O)[O-])cc3)n2)cc1 (centres unmarked) [Compound 43] | 7.9 | 7.9 | 54 | 23 | <4.0 | 6.6 | 9.1 | – | – | 10.2 |
| CC(C)CN(CC(O)C(Cc1ccccc1)NC(=O)OC1COC2OCCC12)S(=O)(=O)c1ccc(-c2coc(-c3ccc4c(c3)OCO4)n2)cc1 (centres unmarked) [Compound 45] | 7.8 | – | – | – | – | – | – | – | – | – |
| Cc1cc(-c2nc(-c3ccc(S(=O)(=O)N(CC(C)C)CC(O)C(Cc4ccccc4)NC(=O)OC4COC5OCCC45)cc3)co2)no1 (centres unmarked) [Compound 46] | 8.4 | 8.4 | 182 | 32 | – | 9.8 | 9.1 | – | <4.49 | 32 |
| CC(C)CN(CC(O)C(Cc1ccccc1)NC(=O)OC1COC2OCCC12)S(=O)(=O)c1ccc(-c2coc(-c3ccc(I)cc3)n2)cc1 (centres unmarked) [Compound 47] | 7.1 | – | – | – | – | – | – | – | – | – |
| CC(=O)OC(c1ccccc1)c1nc(-c2ccc(S(=O)(=O)N(CC(C)C)CC(O)C(Cc3ccccc3)NC(=O)OC3COC4OCCC34)cc2)co1 (centres unmarked) [Compound 48] | 8.3 | 8.3 | 89 | 25 | – | 6.9 | 5.8 | – | <4.0 | 17 |
| CC(C)Cc1nc(-c2ccc(S(=O)(=O)N(CC(C)C)CC(O)C(Cc3ccccc3)NC(=O)OC3COC4OCCC34)cc2)co1 (centres unmarked) [Compound 49] | 8.1 | 8.1 | – | 21 | – | 10 | 4.4 | – | <4.49 | – |
| CC(C)CN(CC(O)C(Cc1ccccc1)NC(=O)OC1COC2OCCC12)S(=O)(=O)c1ccc(-c2coc(-c3cccs3)n2)cc1 (centres unmarked) [Compound 50] | 8.0 | 8.0 | – | 14 | – | – | 4.3 | – | <4.49 | 13 |
| CC(C)CN(CC(O)C(Cc1ccccc1)NC(=O)OC1COC2OCCC12)S(=O)(=O)c1ccc(-c2coc(-c3ccc(Br)cc3)n2)cc1 (centres unmarked) [Compound 51] | 7.5 | 7.5 | – | – | <4.49 | 4.8 | 4.8 | – | – | 12 |
| CC(C)CN(CC(O)C(Cc1ccccc1)NC(=O)OC1COC2OCCC12)S(=O)(=O)c1ccc(-c2coc(-c3ccc(C#N)cc3)n2)cc1 (centres unmarked) [Compound 52] | 8.1 | 8.1 | – | 17 | – | 11 | 6.2 | – | <4.49 | 16 |
| CC(C)CN(CC(O)C(Cc1ccccc1)NC(=O)OC1COC2OCCC12)S(=O)(=O)c1ccc(-c2cn3ccsc3n2)cc1 (centres unmarked) [Compound 53] | 7.6 | – | – | – | – | – | – | – | – | – |
| CC(C)CN(C[C@@H](O)[C@H](Cc1ccccc1)NC(=O)O[C@H]1CO[C@H]2OCC[C@H]21)S(=O)(=O)c1ccc(-c2cnccn2)cc1 [Compound 56, [(1S,2R)-2-hydroxy-3-[N-(2-methylpropyl)-N-[4-(pyrazin-2-yl)-phenylsulfonyl]amino]-1-(phenylmethyl)propyl]carbamic acid, [(3R,3aS,6aR)-hexahydrofuro[2,3-b]furan-3-yl]ester] | 8.1 | – | – | – | – | – | – | – | – | – |
| CC(C)CN(CC(O)C(Cc1ccccc1)NC(=O)OC1COC2OCCC12)S(=O)(=O)c1ccc(-c2nc(N)nc(N)n2)cc1 (centres unmarked) [Compound 58] | 6.0 | – | – | – | – | – | – | – | – | – |
